A melting point compilation (Tetko et al.; mined from patent text by program, amines drawn as free bases though some values may be those of a salt)

SMILES	melting point
Cc1nc(N2CCc3ccccc3CC2)c(C#N)c(=O)n1C	155 to 158 °C
CCOC(=O)C(SC)c1ccccc1NC (stereo unspecified)	87.5 to 88.5 °C
CC(C)=CCCC(C)=CCNC(=O)Nc1ccccc1CCc1cc(C(C)(C)C)c(O)c(C(C)(C)C)c1	87 to 87.5 °C
COc1ccccc1N1CCN(CCCOc2ccc(-c3nnco3)cc2)CC1	139 to 140 °C
CC(C)c1cc(C(=O)O)c(N)c(C(C)C)c1	114 to 116 °C
O=C(Nc1ccccc1)Oc1ccccc1	123 to 124 °C
O=S1(=O)CCC(c2ccc(N3CCN(CC(O)(Cn4cncn4)c4ccc(F)cc4F)CC3)cc2)CN1 (stereo unspecified)	165 to 167 °C
N#CNc1nc2ccccc2o1	175 °C
Cc1nc(-n2cnn(CC3CC3)c2=O)sc1C(N)=O	180 to 181 °C
CCc1cn(C2CC(O)C(CNC(=O)Cc3ccccc3N)O2)c(=O)[nH]c1=O (stereo unspecified)	195 to 196 °C
NS(=O)(=O)c1c(S)cccc1C(F)(F)F	155 °C
Cc1cc2c(N=C=S)cccc2cn1	92 °C
COc1ccc(NC=O)cn1	81 to 83 °C
CC(C)(CO)C(O)(Cn1cncn1)c1ccc(Cl)cc1 (stereo unspecified)	120 to 135 °C
O=C(Cc1c(-c2ccccc2)c2cc(CN3CCN(c4ccccc4)CC3)c(Cl)cc2oc1=O)Nc1ccc(Cl)cc1C(F)(F)F	201 to 203 °C
CCOC(=O)c1cnc2c(c(C)nc3cc(C)nn32)c1O	207 to 208 °C
C[Si](C)(CCCc1nnc(N)nc1N)c1ccccc1	132 to 133 °C
CC(Oc1ccc2nc(N)sc2c1)c1cc(F)cc(F)c1 (stereo unspecified)	132 °C
OCC1OC(n2cnc3c(NC4CCCCC4O)ncnc32)C(O)C1O (stereo unspecified)	210 to 211 °C
Cc1oc(-c2ccccc2)nc1CCc1ccc(CCCC2OC(=O)NC2=O)cc1 (stereo unspecified)	112 to 113 °C
CCOC(=O)c1ccc(OCCCCCCCCCCCCCCCCCCCCOc2ccc(Cl)cc2)cc1	78 to 80 °C
CCc1nc2cnc3cc(Br)cnc3c2n1CC(C)(C)O	207 to 208 °C

SMILES	melting point
CC(NC(=O)CCc1ccc(C(C)(C)C)cc1)c1ccc(NS(C)(=O)=O)c(F)c1 (stereo unspecified)	152 to 154 °C
COc1ccc(CNc2nc[nH]n2)cc1OC1CCCC1	203 to 204 °C
COc1cc(C(=O)CCCc2ccccc2)ccc1O	91 to 92 °C
O=[N+]([O-])c1cnn(-c2c(Cl)cc(C(F)(F)F)cc2Cl)c1	91 to 97 °C
COC(=O)c1cc(I)cc(C)c1O	82 to 84 °C
Cc1cc(C2=NN=C(C=NNC(N)=O)Cc3cc4c(cc32)OCO4)ccc1[N+](=O)[O-]	260 to 264 °C
Cc1nc(N2CCc3ccccc3CC2)c(C#N)c(=O)n1NC(=O)OC(C)(C)C	150 to 152 °C
COC12CC(CCN3CCC(c4c[nH]c5ccccc45)CC3)CN(C)C1Cc1c[nH]c3cccc2c13 (stereo unspecified)	153 to 156 °C
COCCOCCCOc1ccc(/C=C/C(=O)O)c(Oc2ncc(C(F)(F)F)cc2Cl)c1	103 to 104 °C
Cc1cc(=O)c2ccccc2o1	71 °C
COc1ccc2c(c1N)C(CCNC(C)=O)CC2 (stereo unspecified)	94 to 97 °C
CCCCCCCCCC(=O)Nc1ccc(S(=O)(=O)Nc2nnc(C(=O)OCC)s2)cc1	101 to 102 °C
COc1ccc(OC(C)=O)c2ccccc12	51 to 53 °C
CCS(=O)(=O)c1ccc(Oc2cc(Cl)c(Cl)cc2Cl)nc1	120 to 122 °C
Cc1ccsc1C1CC(=O)c2c(C)ccnc2C1 (stereo unspecified)	104 to 105 °C
Cc1oc(-c2ccccc2)nc1COc1ccc2c(c1)CCC(C=C1SC(=O)NC1=O)=C2	271 to 272 °C
COc1ccccc1C(=O)c1ccc(OC)c(Cl)c1Cl	94 to 96 °C
CCCCc1nn(-c2ccc(C(F)(F)F)cn2)cc1CCCOc1ccccc1CC(=O)O	106 to 107 °C
Cc1nc[nH]c1CSCCNC1=NC(=O)C(C)(C)N1	232 to 236 °C
CCCc1c(O[C@H]2CCC[C@H](Oc3ccc(C(=O)CCC(=O)O)cc3)C2)ccc(C(C)=O)c1O (relative stereo)	90 to 94 °C
COc1cc(C=CNC(C)=O)ccc1OCC1CO1 (stereo unspecified)	173 to 174 °C
O=C1N=c2cccc(OCCN3CCC(Cc4ccccc4)CC3)c2=NC1=O	244 to 245 °C

SMILES	melting point
NC(=O)C1(c2c(F)cccc2Cl)CC1	98 to 102 °C
CC(CO)(CO)Nc1ccc([N+](=O)[O-])cc1	120 °C
CC1(N2C(=O)c3cccc(NCc4cccc(Cl)c4)c3C2=O)CCC(=O)NC1=O (stereo unspecified)	199 to 201 °C
COC(=O)[C@@]12CN(Cc3ccccc3)C[C@@H]1[C@@](O)(c1ccc(OC)cc1)CC[C@H]2c1ccccc1 (racemic)	136 °C
CC(C)(C)c1ccc(S(=O)(=O)Nc2ncnc(OCCO)c2Br)cc1	146 to 148 °C
Cc1cccc(C)c1NCCCNCC(O)COc1ccc(O)cc1 (stereo unspecified)	97 to 98 °C
CC(C(=O)OC1(C)CCCCC1)c1ccc2nc(N)sc2c1 (stereo unspecified)	165 to 167 °C
O=C(C=CCl)c1cc(F)c(Cl)cc1Cl	65 to 70 °C
CCOC(=O)COc1c(C)cc(C(OC)(C(F)(F)F)C(F)(F)F)cc1C	97 to 98 °C
Nc1nc2c(nnn2COC(CO)CO)c(=O)[nH]1	233 to 234 °C
CC(Cc1c[nH]c2ccccc12)(NC(=O)OC1C2CC3CC(C2)CC1C3)C(=O)NC(CC(=O)O)Cc1ccc(N)cc1 (stereo unspecified)	115 to 120 °C
COc1cc(Nc2c(C#N)cnc3cc(/C=C/CCO[Si](C)(C)C(C)(C)C)c(OC)cc23)c(Cl)cc1Cl	97 to 99 °C
CC(C)Nc1nc2cc(C#N)ccc2[nH]1	185 to 190 °C
CS(=O)(=O)N1CCC(NC(=O)Nc2ccc(F)cc2)CC1	186 to 188 °C
CCCc1cc(=O)n2cccc(O)c2n1	95 to 96 °C
O=C1CN=C(c2cccc(Cl)c2)c2cc(C(=O)c3ccc(Cl)cc3)ccc2N1	265 °C
OC(Cc1ccc(C(F)(F)F)cc1)(Cn1ccnc1)Cn1cncn1 (stereo unspecified)	159 to 161 °C
Cc1csc(Nc2nc(C(C)(C)C)c(O)c(C(C)(C)C)n2)n1	171 to 173 °C
O=C(O)c1cc([N+](=O)[O-])ccc1C1SCCCS1	192 to 194 °C
Cc1c(Br)ccc(OC(=O)C(C)(C)C)c1C(=O)O	144 to 145 °C
Cc1c(F)c(N2CCNCC2)cc2c1c(=O)c(C(=O)O)cn2C1CC1	226 to 228 °C

Other lines, results leading:

melting point	SMILES
181 to 182 °C	O=C(Nc1ccc(OCCCCl)c2ccccc12)c1cc(F)cc(N2CCCCC2)c1
106 °C	COc1ccc(Cn2ccn(CC(=O)c3ccc(OC)c(OC4CCCC4)c3)c2=O)cc1
216 to 218 °C	CS(=O)(=O)N1Cc2cccc(-c3ccc4cnc(Nc5ccc(C6CN(CC(N)=O)C6)cc5)nn34)c2C1
182 to 186 °C	Cc1cc(Cl)nnc1NS(=O)(=O)c1cccc2c(N(C)C)cccc12
> 250 °C	O=C(c1ccc(Nc2nc(-c3ccccc3)nc3ccccc23)cc1)N1CCN(c2ncc(Cc3ccccc3)cn2)CC1
133 to 134 °C	Cc1c(N)cccc1-c1cn(C)c(=O)c(Nc2ccc(C3C(=O)N(C)CCN3C)cc2)n1 (stereo unspecified)
105 to 107 °C	CCN(CC)C(=O)c1c(Cl)cccc1C(=O)Nc1ccc(Cn2nc(C(F)(F)F)cc2C(F)(F)F)cc1C
263 °C	O=C(O)c1cnn2c(C(F)F)cc(-c3ccc(Cl)c(Cl)c3)nc12
93 to 95 °C	Cc1ccc(OCc2ccccc2)c(C(CCN2CC3(C)CC3(C)C2)c2ccccc2)c1 (stereo unspecified)
266 to 267 °C	Cc1csc(-c2ccc(C3=NNC(=O)CC3)cc2)n1
200 °C	COc1ccc(C(=O)Nc2ccc3ccc(OC4CCN(C)CC4)nc3n2)cc1
221 to 222 °C	O=C(NN=Cc1ccc(Cl)cc1)c1[nH]c2ccccc2c1Cc1ccccc1
165 to 167 °C	COc1cc(-c2cn(Cc3ccccc3)c(=O)c3ccccc23)ccc1O
138 to 148 °C	COC(=O)Nc1cc(Oc2ccc3c(C(=O)Nc4ccc(CN5CCNCC5)c(C(F)(F)F)c4)cccc3c2)ncn1
337 °C	Oc1nc(Cc2ccccc2)nc(O)c1-c1ccccc1
377 to 379 °C	O=C(O)c1ccc(N2C(=O)c3ccc(C(=O)O)cc3C2=O)cc1

melting point	SMILES
220 to 222 °C	Cc1ccc(-c2ccc(C(=O)Nc3ccc4nc(CN(C)C)ccc4c3)cn2)cc1
209 to 212 °C	Cc1ccc(/C=C/C2=CCN(Cc3c[nH]c4ncccc34)CC2)cc1
160 °C	Cn1c(=O)n(Cc2ccc(F)cc2)c(=O)c2cc(C#CCc3ccccc3)ccc21
174 to 175 °C	CN1CCN(c2cccc3ccc(NC(=O)c4ccc(Cl)cc4)cc23)CC1
180 °C	N#Cc1ccc(N(Cc2ccc(O)cc2)n2ccnc2)cc1
137 to 138 °C	O=c1nc(N(Cc2ccccc2)c2ccccc2)sc2ncccc12
201 to 202 °C	N#Cc1ccc(OCc2cccnc2)cc1OC(C(=O)O)c1ccccc1 (racemic)
105 to 107 °C	CCCN(CCC)S(=O)(=O)c1cccc(C(=O)Nc2cccc(Br)c2)c1
140 to 142 °C	COc1ccc(COc2c(OC)ccc3c2CC(C(=O)O)N(C(=O)C(c2ccccc2)c2ccccc2)C3)cc1C (racemic)
246 to 248 °C	CC(C)(C)C(NC(=O)c1ccc(Cl)cc1)Nc1c(Nc2ccccn2)c(=O)c1=O (stereo unspecified)
146 to 150 °C	C#Cc1cccc(Nc2ncnc3ccc(S(=O)(=O)n4ccc(C=CC(=O)Nc5ccccc5NC(=O)OC(C)(C)C)c4)cc23)c1
205 to 210 °C	COc1cc2cc3ncc(C#N)c(Nc4ccc(F)c(Cl)c4)c3cc2cc1OCCN1CCOCC1
245 to 250 °C	O=C1NC(=O)C(=Cc2ccc3c(c2)CCC(Cc2ccc(OCc4ccccc4)cc2)O3)S1 (stereo unspecified)
135 °C	COc1cccc2c1CC(C(=O)NCCOc1ccc(C(=O)OC(C)(C)C)cc1)N2S(=O)(=O)c1ccc(-c2ccc(F)cc2F)cc1 (stereo unspecified)
215 °C	COc1ccc(C(=O)Nc2ccncc2)c2c1oc1ccccc12
